One block for each compound: values may come before it.
Key:
[1] = target: T1, Neuropeptide Y receptor type 1 (Homo sapiens, UniProt P25929); test: Displacement of [3H]propionyl-pNPY from neuropeptide Y1 receptor in human SK-N-MC cells; format: cell-based
T1 sequence (P25929 whole entry): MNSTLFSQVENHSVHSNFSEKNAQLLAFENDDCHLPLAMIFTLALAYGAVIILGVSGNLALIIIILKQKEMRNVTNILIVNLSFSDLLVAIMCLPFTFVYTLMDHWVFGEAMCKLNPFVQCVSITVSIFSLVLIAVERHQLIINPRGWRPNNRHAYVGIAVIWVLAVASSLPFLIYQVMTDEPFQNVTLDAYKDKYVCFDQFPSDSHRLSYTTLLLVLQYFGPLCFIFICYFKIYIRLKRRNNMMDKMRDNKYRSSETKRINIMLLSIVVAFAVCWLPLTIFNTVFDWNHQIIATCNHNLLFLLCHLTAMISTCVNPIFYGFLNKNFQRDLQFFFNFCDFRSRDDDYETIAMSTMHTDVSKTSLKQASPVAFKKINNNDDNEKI

[2] = target: T1, Neuropeptide Y receptor type 1; test: Displacement of [3H]UR-MK114 from neuropeptide Y1 receptor in human SK-N-MC cells; format: cell-based
[3] = target: T1, Neuropeptide Y receptor type 1; test: Binding affinity to neuropeptide Y1 receptor in human SK-N-MC cells by kinetic experiment; format: cell-based
[4] = target: T1, Neuropeptide Y receptor type 1; test: Binding affinity to neuropeptide Y1 receptor in human SK-N-MC cells; format: cell-based
[5] = Chemical stability of compound assessed as half life; format: physicochemical
[6] = target: T1, Neuropeptide Y receptor type 1; test: Binding affinity to neuropeptide Y1 receptor in human MCF7 cells; format: cell-based
[7] = target: T1, Neuropeptide Y receptor type 1; test: Binding affinity to neuropeptide Y1 receptor in human MCF7 cells by kinetic experiment; format: cell-based
[8] = target: T2, Neuropeptide Y receptor type 5 (Homo sapiens, UniProt Q15761); test: Displacement of Dy-635-pNPY from human neuropeptide Y5 receptor expressed in HEC-1B cells by flow cytometric assay; format: cell-based
T2 sequence (Q15761 whole entry): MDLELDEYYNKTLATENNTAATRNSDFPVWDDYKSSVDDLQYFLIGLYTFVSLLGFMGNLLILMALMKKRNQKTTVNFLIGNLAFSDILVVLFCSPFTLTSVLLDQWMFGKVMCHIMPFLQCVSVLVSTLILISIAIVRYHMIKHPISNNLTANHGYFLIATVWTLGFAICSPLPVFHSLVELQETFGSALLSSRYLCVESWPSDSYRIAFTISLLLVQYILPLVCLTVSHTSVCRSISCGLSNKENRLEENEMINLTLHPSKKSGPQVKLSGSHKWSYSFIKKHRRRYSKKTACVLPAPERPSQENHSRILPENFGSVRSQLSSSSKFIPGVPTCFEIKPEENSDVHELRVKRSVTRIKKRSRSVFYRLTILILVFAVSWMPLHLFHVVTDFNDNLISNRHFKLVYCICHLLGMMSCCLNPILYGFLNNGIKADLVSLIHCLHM

[9] = target: T3, Neuropeptide Y receptor type 1 (Homo sapiens) (UniProt P25929)
T3 sequence (whole entry): T1 sequence (P25929 whole entry)

[10] = target: Neuropeptide Y receptor type 4 (Homo sapiens, UniProt P50391); test: Displacement of Cy5-[K4]-hPP from human neuropeptide Y4 receptor expressed in CHO cells coexpressing Galphaqi5 and aequorin by flow cytometric assay; format: cell-based
Chain of Neuropeptide Y receptor type 4 (P50391 whole entry): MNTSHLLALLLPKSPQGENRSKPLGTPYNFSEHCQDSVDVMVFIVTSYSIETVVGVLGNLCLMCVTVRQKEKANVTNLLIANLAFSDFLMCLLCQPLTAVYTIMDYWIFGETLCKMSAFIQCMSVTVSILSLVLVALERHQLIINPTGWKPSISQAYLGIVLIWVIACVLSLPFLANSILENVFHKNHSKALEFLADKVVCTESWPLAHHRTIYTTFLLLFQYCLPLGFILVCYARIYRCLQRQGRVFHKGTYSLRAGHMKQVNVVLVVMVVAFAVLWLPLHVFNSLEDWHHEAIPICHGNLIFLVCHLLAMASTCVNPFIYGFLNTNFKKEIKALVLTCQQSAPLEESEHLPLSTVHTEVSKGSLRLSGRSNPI

[11] = target: T4, Neuropeptide Y receptor type 2 (Homo sapiens, UniProt P49146); test: Displacement of Dy-635-pNPY from human neuropeptide Y2 receptor expressed in CHO cells coexpressing Galphaqi5 and aequorin by flow cytometric assay; format: cell-based
T4 sequence (P49146 whole entry): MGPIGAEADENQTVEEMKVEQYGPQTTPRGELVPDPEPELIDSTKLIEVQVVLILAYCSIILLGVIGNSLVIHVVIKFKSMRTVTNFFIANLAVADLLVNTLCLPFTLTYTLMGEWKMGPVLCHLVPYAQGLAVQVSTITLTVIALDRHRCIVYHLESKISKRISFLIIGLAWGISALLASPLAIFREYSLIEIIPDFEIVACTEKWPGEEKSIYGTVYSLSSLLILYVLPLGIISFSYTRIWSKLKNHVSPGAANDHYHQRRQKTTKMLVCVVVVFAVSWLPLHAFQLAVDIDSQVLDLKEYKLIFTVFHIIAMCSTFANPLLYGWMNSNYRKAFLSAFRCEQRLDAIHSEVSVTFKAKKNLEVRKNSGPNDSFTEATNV

Ki [1]: 33 nM
Structure (SMILES): COC(=O)NC(N)=NCCC[C@@H](NC(=O)C(c1ccccc1)c1ccccc1)C(=O)NCc1ccc(O)cc1

Ki [2]: 0.1 nM
Structure (SMILES): CCOC(=O)CNC(=O)/N=C(/N)NCCC[C@@H](NC(=O)C(c1ccccc1)c1ccccc1)C(=O)NCc1ccc(O)cc1

Kd [3]: 1.1 nM | Kd [4]: 1.2 nM | half-life [5]: 2.2 min | Kd [6]: 2.9 nM | Kd [7]: 1.1 nM
Structure (SMILES): [3H]CC([3H])C(=O)/N=C(/N)NCCC[C@@H](NC(=O)C(c1ccccc1)c1ccccc1)C(=O)NCc1ccc(O)cc1 (some centres undefined)

Ki [2]: 0.1 nM
Structure (SMILES): CCNC(=O)/N=C(/N)NCCC[C@@H](NC(=O)C(c1ccccc1)c1ccccc1)C(=O)NCc1ccc(O)cc1

Ki [1]: 4.5 nM
Structure (SMILES): CCOC(=O)NC(N)=NCCC[C@@H](NC(=O)C(c1ccccc1)c1ccccc1)C(=O)NCc1ccc(O)cc1

Ki [1]: 27 nM
Structure (SMILES): CCC/N=C(/N)NCCC[C@@H](NC(=O)C(c1ccccc1)c1ccccc1)C(=O)NCc1ccc(O)cc1

Ki [1]: 12 nM
Structure (SMILES): CC(=O)/N=C(/N)NCCC[C@@H](NC(=O)C(c1ccccc1)c1ccccc1)C(=O)NCc1ccc(O)cc1

IC50 [2]: 2.24 nM | Kd [2]: 1.2 nM | Ki [2]: 1 nM | Ki [8]: > 2000 nM | pKb [9]: 9.1 | Ki [10]: > 10000 nM | Ki [11]: > 10000 nM | Ki [6]: 1.2 nM
Structure (SMILES): CCC(=O)/N=C(/N)NCCC[C@@H](NC(=O)C(c1ccccc1)c1ccccc1)C(=O)NCc1ccc(O)cc1

Reference: ChEMBL document CHEMBL1151759 (J Med Chem, 2008)
